Test results from patent US20250152605A1, “METHOD AND DRUG FOR TREATING NEURONAL CEROID LIPOFUSCINOSIS” (priority 2021, published 2025).

Assays:
[1] = test system: CLN3^Δex7/8 neural stem cells; assay: Annexin V and propidium iodide apoptosis staining, flow cytometry; assay type: cell-based, human; conditions: treatment for 48 hours
Method: In analyzing the mean fluorescence intensity of neural stem cells and neuronal staining or single cell establishment of NRK cells, flow cytometry was used: the cell medium was aspirated off, after wash with dPBS once, the digestive enzyme corresponding to the cell type was added to digest into single cells; the supernatant was removed by centrifugation, and the cells were resuspended with 1 mL of fresh medium; the cell suspension with filtered through 40 μm filter membrane and the single cell filtrate was collected; the single cell filtrate was transferred to a flow tube and analyzed or sorted using BD FACS Aria III; in the analysis, the fluorescence intensity of 1×10^4 cells for each sample was analyzed to obtain the mean fluorescence intensity (MFI); for sorting, cells were received in 96 well plates with medium, one cell per well to establish a cell line.
Then, whether compound G causes cytotoxicity in neural stem cells was examined. Cell apoptosis was detected after compound G treatment with Annexin V and propidium iodide (PI) staining and analyzed with flow cytometry. Annexin V positive and PI negative represented early apoptotic cells, while Annexin V positive and PI positive represented late apoptotic cells.

KEAP1 protein = biological target: T1, KEAP1 protein (Homo sapiens, UniProt Q14145); assay: Quantitative thiol reactivity analysis; assay type: binding; conditions: CLN3^Δex7/8 human neural stem cells, 30 μM, 2 hours, mass spectrometry
T1 construct: mass spectrometry was used to analyze the thiol reactivity of the cysteine residues on KEAP1 in the lysate; endogenous in cells; host or cells: CLN3 Δex7/8 human neural stem cells differentiated from H9 human embryonic stem cells
Method: To determine the protein covalently bound to Compound G, a Compound G-binding proteomic analysis with the following steps was performed: neural stem cells were cultured in 10 cm cell culture dishes to a cell density of 90%. 1-2 mg of protein could be obtained after the neural stem cells in a 10 cm cell culture dish are lysed; the supernatant was aspirated, fresh medium containing 30 μM Compound G or medium containing an equal volume of solvent DMSO was added, followed by incubation in a cell culture incubator at 37° C. for 2 hours; the cell medium was aspirated followed by washing once with 10 mL of dPBS, and the aspiration should be as clean as possible.
The cell culture dish was placed on ice and added with RIPA cell lysis buffer with protease inhibitors and phosphatase inhibitors (for the formulation, please refer to the flow cytometry analysis and sorting section); all cells were scraped off on ice using a cell scraper and collected into 1.5 mL EP tubes; the sample was placed on ice and ultrasonically broken with an ultrasonic power of 20% and with ultrasound 5 times for 3 seconds each time; ENE probe at a final concentration of 100 μM was added to each sample, followed by incubation for 1 hour in the dark while rotating. ENE could react with sulfhydryl groups in protein cysteine residues to produce stable thioether bonds. […]

mouse neural stem cells = assay: qRT-PCR of autophagy and lysosome-related genes in mouse neural stem cells; assay type: cell-based; conditions: 6 hours
Method: The cells in the cell-culture dish were collected, extracted using AxyPrep Total RNA Mini Prep Kit or Qiagen AxyPrep Total RNA Mini Prep Kit, and the extracted RNA concentration is measured using Nanodrop; the extracted mRNA was reverse transcribed into cDNA by Transgen's EasyScript® One-Step gDNA Removal and cDNA Synthesis SuperMix and the primers used for reverse transcription were Oligo dT primers; the completion of reverse transcription followed by qRT-PCR reaction through PerfectStart™ Green qPCR SuperMix to detect the expression of the target gene; the qRT-PCR reaction was performed on the Bio-Rad CFX96 Real-Time PCR system; see Table 2 and Table 3 for the 20 μL qRT-PCR reaction system and reaction procedures; data analysis was performed in Prism 7 software using the 2^−ΔΔCt process with GAPDH as internal reference for relative quantification of the expression of the target gene.
After treating primary (a) neural stem cells and (b) neurons of Cln3 KO) mice for 6 hours, the mRNA was extracted from the cells, reverse-transcribed into cDNA, and transcription levels of autophagy- and lysosome-related genes were detected using qRT-PCR (n=3).
It was speculated from this that the known target FXR of Compound G was expressed at low or no levels in neural lineage cells. […]

T1 sequence (Q14145 whole entry): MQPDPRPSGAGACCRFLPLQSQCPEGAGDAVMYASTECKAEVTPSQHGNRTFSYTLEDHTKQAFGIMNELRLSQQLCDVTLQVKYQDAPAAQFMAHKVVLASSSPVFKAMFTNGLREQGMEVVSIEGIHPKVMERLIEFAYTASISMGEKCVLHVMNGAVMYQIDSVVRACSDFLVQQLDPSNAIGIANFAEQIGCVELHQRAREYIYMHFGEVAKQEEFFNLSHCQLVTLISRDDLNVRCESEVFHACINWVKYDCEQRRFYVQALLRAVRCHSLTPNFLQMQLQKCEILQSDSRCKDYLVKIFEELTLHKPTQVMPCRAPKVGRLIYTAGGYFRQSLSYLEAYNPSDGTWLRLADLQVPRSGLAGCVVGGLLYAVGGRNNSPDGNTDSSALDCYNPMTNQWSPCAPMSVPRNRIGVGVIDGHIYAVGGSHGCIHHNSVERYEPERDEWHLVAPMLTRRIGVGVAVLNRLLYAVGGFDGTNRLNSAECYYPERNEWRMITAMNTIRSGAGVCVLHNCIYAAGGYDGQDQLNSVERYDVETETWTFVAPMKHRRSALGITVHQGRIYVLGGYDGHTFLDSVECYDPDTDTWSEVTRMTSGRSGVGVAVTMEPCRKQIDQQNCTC

## C/C=C1\C(=O)C[C@H]2[C@@H]3CCC4=CC(=O)CC[C@]4(C)[C@H]3CC[C@]12C [Compound G, (Z)-guggulsterone]
[1]
  proportions of apoptotic cells (Annexin V / PI): did not significantly change the proportions of apoptotic cells
KEAP1 protein
  thiol reactivity of the cysteine residues on KEAP1: reduce the thiol reactivity of cysteine residue 288
Mouse neural stem cells
  expression level of the autophagy and lysosome-related genes: no significant change
